PubChem BioAssay (NCI)
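Results reflect a 48-hour exposure of cells in 96-well plates to compound at five concentrations. Here, GI50 denotes the concentration required for 50% inhibition of growth. TGI: total growth inhibition.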

Assays:
Assay in all cases: inhibition of tumour cell growth, NCI panel, 48 h
[1] = tested on: SK-MEL-28 melanoma
[2] = tested on: NCI-H522 lung
[3] = tested on: SF-268 CNS
[4] = tested on: SNB-19 CNS
[5] = tested on: SK-OV-3 ovarian
[6] = tested on: K-562 leukemia
[7] = tested on: A498 renal
[8] = tested on: SN12C renal
[9] = tested on: HS 578T breast
[10] = tested on: HCC-2998 colon
[11] = tested on: MOLT-4 leukemia
[12] = tested on: UACC-257 melanoma
[13] = tested on: NCI-H460 lung
[14] = tested on: SK-MEL-5 melanoma
[15] = tested on: NCI/ADR-RES ovarian
[16] = tested on: SNB-75 CNS
[17] = tested on: HL-60(TB) leukemia
[18] = tested on: MALME-3M melanoma
[19] = tested on: MCF7 breast
[20] = tested on: A549 NSCLC
[21] = tested on: HCT-116 colon
[22] = tested on: SF-539 CNS
[23] = tested on: NCI-H226 lung
[24] = tested on: OVCAR-4 ovarian
[25] = tested on: COLO 205 colon
[26] = tested on: LOX IMVI melanoma
[27] = tested on: U251 CNS
[28] = tested on: UO-31 renal
[29] = tested on: SF-295 CNS
[30] = tested on: PC-3 prostate
[31] = tested on: UACC-62 melanoma
[32] = tested on: M14 melanoma
[33] = tested on: RPMI-8226 leukemia
[34] = tested on: CAKI-1 renal
[35] = tested on: SW-620 colon
[36] = tested on: MDA-MB-231 breast
[37] = tested on: NCI-H23 lung
[38] = tested on: KM12 colon
[39] = tested on: HCT-15 colon
[40] = tested on: RXF 393 renal
[41] = tested on: ACHN renal
[42] = tested on: OVCAR-5 ovarian
[43] = tested on: EKVX NSCLC
[44] = tested on: DU-145 prostate
[45] = tested on: HT29 colon
[46] = tested on: OVCAR-3 ovarian
[47] = tested on: IGROV1 ovarian
[48] = tested on: T-47D breast
[49] = tested on: MDA-N
[50] = tested on: BT-549 breast
[51] = tested on: HOP-92 NSCLC
[52] = tested on: SK-MEL-2 melanoma
[53] = tested on: HOP-62 NSCLC
[54] = tested on: OVCAR-8 ovarian
[55] = tested on: TK-10 renal
[56] = tested on: CCRF-CEM leukemia
[57] = tested on: 786-0 renal
[58] = tested on: MDA-MB-435
[59] = tested on: SR leukemia

For `CSc1nnnc2ccccc12`, the TGI [1] was greater than 100 µM, the TGI [2] was greater than 100 µM and the TGI [3] was greater than 100 µM. For the same compound, the TGI [4] was greater than 100 µM, the TGI [5] was greater than 100 µM and the TGI [6] was greater than 100 µM. It also gave a TGI [7] greater than 100 µM, a TGI [8] greater than 100 µM and a TGI [9] greater than 100 µM. It also gave a TGI [10] greater than 100 µM, a TGI [11] greater than 100 µM and a TGI [12] greater than 100 µM. The TGI [13] was greater than 100 µM, the TGI [14] was greater than 100 µM and the TGI [15] was greater than 100 µM. For the same compound, the TGI [16] was greater than 100 µM, the TGI [17] was greater than 100 µM and the TGI [18] was greater than 100 µM. For the same compound, the TGI [19] was greater than 100 µM, the TGI [20] was greater than 100 µM and the TGI [21] was greater than 100 µM. The TGI [22] was greater than 100 µM, the TGI [23] was greater than 100 µM and the TGI [24] was greater than 100 µM. The TGI [25] was greater than 100 µM, the TGI [26] was greater than 100 µM and the TGI [27] was greater than 100 µM. It also gave a TGI [28] greater than 100 µM, a TGI [29] greater than 100 µM and a TGI [30] greater than 100 µM. It also gave a TGI [31] greater than 100 µM, a TGI [32] greater than 100 µM and a TGI [33] greater than 100 µM. The TGI [34] was greater than 100 µM, the TGI [35] was greater than 100 µM and the TGI [36] was greater than 100 µM. The TGI [37] was greater than 100 µM, the TGI [38] was greater than 100 µM and the TGI [39] was greater than 100 µM. For the same compound, the TGI [40] was greater than 100 µM, the TGI [41] was greater than 100 µM and the TGI [42] was greater than 100 µM. It also gave a TGI [43] greater than 100 µM, a TGI [44] greater than 100 µM and a TGI [45] greater than 100 µM. It also gave a TGI [46] greater than 100 µM, a TGI [47] greater than 100 µM and a TGI [48] greater than 100 µM. It also gave a TGI [49] greater than 100 µM, a TGI [50] greater than 100 µM and a TGI [51] greater than 100 µM. For the same compound, the TGI [52] was greater than 100 µM, the TGI [53] was greater than 100 µM and the TGI [54] was greater than 100 µM. It also gave a TGI [55] greater than 100 µM, a TGI [56] greater than 100 µM and a TGI [57] greater than 100 µM. It also gave a TGI [58] greater than 100 µM.
Compound `COc1cc2c3c(n(C)c(=O)c2cc1OC)-c1cc2c(cc1/C3=C\CCCCl)OCO2` has a TGI [1] greater than 100 µM, a TGI [2] greater than 100 µM and a TGI [3] greater than 100 µM. The TGI [4] was greater than 100 µM, the TGI [5] was 49.3 µM and the TGI [6] was greater than 100 µM. For the same compound, the TGI [7] was 80.7 µM, the GI50 [8] was greater than 100 µM and the TGI [8] was greater than 100 µM. It also gave a TGI [9] greater than 100 µM, a TGI [10] of 73.2 µM and a TGI [11] of 43.2 µM. The TGI [12] was greater than 100 µM, the TGI [13] was greater than 100 µM and the TGI [14] was 70.6 µM. The TGI [15] was greater than 100 µM, the TGI [16] was 32.2 µM and the TGI [17] was greater than 100 µM. The TGI [18] was greater than 100 µM, the TGI [19] was greater than 100 µM and the TGI [20] was greater than 100 µM. It also gave a GI50 [21] of 40.4 µM, a TGI [21] greater than 100 µM and a TGI [24] greater than 100 µM. It also gave a TGI [25] greater than 100 µM, a TGI [26] greater than 100 µM and a TGI [27] greater than 100 µM. It also gave a TGI [28] greater than 100 µM, a TGI [29] of 99.2 µM and a TGI [30] greater than 100 µM. It also gave a GI50 [31] of 33.3 µM, a TGI [31] greater than 100 µM and a TGI [32] greater than 100 µM. The TGI [34] was greater than 100 µM, the TGI [35] was greater than 100 µM and the TGI [36] was greater than 100 µM. It also gave a TGI [37] of 40.9 µM, a TGI [38] of 70.1 µM and a TGI [39] greater than 100 µM. For the same compound, the TGI [40] was 26.8 µM, the TGI [41] was greater than 100 µM and the TGI [42] was greater than 100 µM. For the same compound, the TGI [43] was greater than 100 µM, the GI50 [44] was 35.9 µM and the TGI [44] was greater than 100 µM. The TGI [45] was greater than 100 µM, the TGI [47] was greater than 100 µM and the TGI [48] was greater than 100 µM. The TGI [49] was greater than 100 µM, the TGI [50] was greater than 100 µM and the TGI [51] was greater than 100 µM. It also gave a TGI [52] of 98.9 µM, a GI50 [53] of 17.5 µM and a TGI [53] of 62.8 µM. The TGI [54] was greater than 100 µM, the TGI [55] was 37.3 µM and the TGI [56] was greater than 100 µM. For the same compound, the TGI [57] was 40 µM, the GI50 [58] was greater than 100 µM and the TGI [58] was greater than 100 µM.
In the case of `COC1C(O)C(C)OC(O[C@H]2CC[C@@]3(C)C(CC[C@@H]4[C@@H]3CC[C@]3(C)[C@@H](C(C)OC5OC(CO)C(O)C(O)C5O)CC[C@]43O)C2)C1O` (stereo partly drawn), the TGI [1] was greater than 25 µM, the TGI [2] was greater than 25 µM and the TGI [3] was greater than 25 µM. The TGI [4] was greater than 25 µM, the TGI [5] was greater than 25 µM and the TGI [6] was greater than 25 µM. The TGI [7] was greater than 25 µM, the TGI [8] was greater than 25 µM and the TGI [9] was greater than 25 µM. It also gave a TGI [10] greater than 25 µM, a TGI [11] greater than 25 µM and a TGI [12] greater than 25 µM. The TGI [59] was greater than 25 µM, the TGI [13] was greater than 25 µM and the TGI [14] was greater than 25 µM. It also gave a TGI [15] greater than 25 µM, a TGI [16] greater than 25 µM and a TGI [17] greater than 25 µM. For the same compound, the TGI [19] was greater than 25 µM, the TGI [20] was greater than 25 µM and the TGI [21] was greater than 25 µM. The TGI [22] was greater than 25 µM, the TGI [23] was greater than 25 µM and the TGI [24] was greater than 25 µM. For the same compound, the TGI [26] was greater than 25 µM, the TGI [27] was greater than 25 µM and the TGI [28] was greater than 25 µM. For the same compound, the TGI [29] was greater than 25 µM, the TGI [30] was greater than 25 µM and the TGI [31] was greater than 25 µM. The TGI [32] was greater than 25 µM, the TGI [33] was greater than 25 µM and the TGI [34] was greater than 25 µM. It also gave a TGI [35] greater than 25 µM, a TGI [36] greater than 25 µM and a TGI [37] greater than 25 µM. The TGI [38] was greater than 25 µM, the TGI [39] was greater than 25 µM and the TGI [41] was greater than 25 µM. The TGI [42] was greater than 25 µM, the TGI [43] was greater than 25 µM and the TGI [45] was greater than 25 µM. For the same compound, the TGI [46] was greater than 25 µM, the TGI [47] was greater than 25 µM and the TGI [49] was greater than 25 µM. For the same compound, the TGI [51] was greater than 25 µM, the TGI [52] was greater than 25 µM and the TGI [53] was greater than 25 µM. The TGI [54] was greater than 25 µM, the TGI [55] was greater than 25 µM and the TGI [56] was greater than 25 µM. It also gave a TGI [57] greater than 25 µM and a TGI [58] greater than 25 µM.
With `O=c1c(O)c(-c2ccccc2)oc2c(CP(=O)(O)O)cccc12` the TGI [2] was greater than 100 µM, the TGI [5] was greater than 100 µM and the TGI [6] was greater than 100 µM. For the same compound, the TGI [7] was greater than 100 µM, the TGI [8] was greater than 100 µM and the TGI [10] was greater than 100 µM. The TGI [11] was greater than 100 µM, the TGI [12] was greater than 100 µM and the TGI [59] was greater than 100 µM. It also gave a TGI [13] greater than 100 µM, a TGI [14] greater than 100 µM and a TGI [18] greater than 100 µM. For the same compound, the TGI [19] was greater than 100 µM, the TGI [20] was greater than 100 µM and the TGI [21] was greater than 100 µM. For the same compound, the TGI [22] was greater than 100 µM, the TGI [24] was greater than 100 µM and the TGI [25] was greater than 100 µM. It also gave a TGI [27] greater than 100 µM, a TGI [29] greater than 100 µM and a TGI [30] greater than 100 µM. It also gave a TGI [31] greater than 100 µM, a TGI [32] greater than 100 µM and a TGI [34] greater than 100 µM. For the same compound, the TGI [36] was greater than 100 µM, the TGI [37] was greater than 100 µM and the TGI [39] was greater than 100 µM. The TGI [40] was greater than 100 µM, the TGI [42] was greater than 100 µM and the TGI [43] was greater than 100 µM. For the same compound, the TGI [44] was greater than 100 µM, the TGI [46] was greater than 100 µM and the TGI [47] was greater than 100 µM. The TGI [48] was greater than 100 µM, the TGI [49] was greater than 100 µM and the TGI [50] was greater than 100 µM. The TGI [52] was greater than 100 µM, the TGI [53] was greater than 100 µM and the TGI [55] was greater than 100 µM. It also gave a TGI [56] greater than 100 µM, a TGI [57] greater than 100 µM and a TGI [58] greater than 100 µM.
